The source of these data is US20210289787A1, “HERBICIDAL MIXTURES COMPRISING ISOXAFLUTOLE, TRIFLUDIMOXAZIN AND AN IMIDAZOLINONE HERBICIDE; AND THEIR USE IN SOYBEAN AND COTTON CULTURES” (BASF SE, priority 2018, published 2021).

Each structure is given as a SMILES string.

The assay relates to SETVI (Setaria viridis, Green foxtail). Nature of the assay: post-emergence greenhouse experiment, herbicidal action (synergism by Colby). The class given is in vivo.

Consider `CS(=O)(=O)c1cc(C(F)(F)F)ccc1C(=O)c1cnoc1C1CC1` [Isoxaflutole, isoxaflutole], for which the “Herbicidal action against SETVI, Found” value reads like this: (growth stage 13 (6 to 10 cm), scale 0 to 100, test period 20 days, isoxaflutole 25 g/ha alone) 20; (growth stage 13, scale 0 to 100, 20 days, isoxaflutole 12.5 g/ha alone) 20.
